Data on two sequences can be found in patent publication US10058587B2, “Peptide composition for cancer treatment by inhibiting TRPV6 calcium channel activity” (priority 2008, dated 2018).

For data set [1], the system named is SKOV3 ovarian cancer xenografts. Nature of the data set: SKOV3 ovarian cancer xenograft, SorC13 with CAT chemotherapy (Example 26). It is filed as in vivo, NOD/SCID mice. To be noted: day 12; SorC13 300 mg/kg i.p. Day 1 to 12. The procedure:
SorC13 stock solutions were prepared by dissolving the appropriate amounts of the compound in physiologically buffered saline (pH 7.0 at 25° C.) to comprise a final solution to deliver 300 mg/Kg mouse. Stock solutions were prepared weekly, stored at −20° C. and diluted fresh each day for dosing. All solutions were filter sterilized with a 0.22 mu filter prior to further manipulation. The filter sterilizer units were pre-washed with a small volume of sterile distilled water. […]
To implant SKOV3 tumor cells into NOD/SCID mice, cell cultures were centrifuged to pellet the cells, the supernatant was aspirated, the cell pellet resuspended in 10 ml of growth media and the cell number was determined using a hemocytometer. […]
Tumor volumes (V) were calculated by caliper measurement using standard measurements of the width (W), length (L) and thickness (T) of tumors. […] Percentage ΔT/ΔC values, as a measure of efficacy, were determined where ΔC refers to change in volume of control or untreated tumor, and ΔT refers to change in volume of treated tumor.
Animals were intraperitoneally (i.p.) injected with the vehicular control, or the low, medium or high doses of CAT or CAT and SorC13. […] The tumor volume and body weights were measured every day. As well, general health of the animals was monitored every day.

The nature of data set [2]: Degradation rate in human plasma (HPLC). It is filed as in vitro ADME. The procedure:
Rat plasma was obtained from blood taken from sacrificed rats (Sprague-Dawley) and placed into heparinized glass vials to prevent clotting. Whole blood was centrifuged at 8000×g for 5 minutes to spin down the cells leaving the plasma as supernatant. Human whole blood samples from healthy humans were taken in lithium-heparinized vacuum tubes. The samples were placed into 2.0 mL microcentrifuge tubes and centrifuged at 8000×g for 5 min. The plasma was carefully separated from red blood cells and used immediately.
Determination of degradation rate of the C-peptides was done by measuring, with the HPLC protocol, the amount of either SorC13 or SorC27 in dosed plasma samples, after time. Sample tubes (500 uL) containing 2 uL of 2 mM Pefabloc were previously prepared for sample delivery SorC13 (1.0 mg) or SorC27 (2.0 mg) were dissolved in 1.0 mL of fresh plasma (37° C.) and placed in an incubating water bath at 37° C. A sample (100 uL) was taken immediately and quenched in sample tubes containing 2 uL of 2 mM Pefabloc, mixed vigorously and immediately frozen at −80° C. This initial sample represented time zero for the run. At successive time intervals of 5 minutes, 100 uL samples were withdrawn, quenched in Pefabloc, mixed, and frozen at −80° C. until analysis.
The rat plasma degradation rate was determined for the plasma from three different rats, while the rate of degradation in human plasma used six separate plasma samples. The data used were the means (±SEM) and were fitted to a simple one-phase exponential decay model to determine the half-life of the two peptides. This also allowed the calculation of a static degradation rate. FIG. 11 is illustrative of the rate at which SorC27 was degraded in human plasma.

For orientation: half-life means the time in which the quantity being followed falls by half. A higher half-life goes with slow loss.

Where no end group is shown, it is not given here.

On to KEFLHPSKVDLPR [SorC13, KEFLHPSKVDLPR], for which, in data set [1], the “% ΔT/ΔC (tumour volume normalized to control volume)” value turned out to be 47.6% and the Mean tumor volume was 116.8 mm^3.
Take EGKLSSNDTEGGLCKEFLHPSKVDLPR [SorC27]: the “binding to plasma proteins” value in data set [2] (human plasma) was “doesn't bind to”. In data set [2] (human, plasma, 37° C.), this sequence returned a half-life of 20 min.
